Earlier results in patent US20220096467A1, “COMBINATION OF SELECTIVE ALPHA-ADRENERGIC RECEPTOR AGONIST OR AN ANTICHOLINERGIC AGENT AND LIPOIC ACID AND USES THEREOF” (Cellix Bio Private Limited, priority 2019, published 2022).

Test system: eyes of patients who had open angle glaucoma
Conditions: 150 mg of ALA per day, controls received only topical medical therapy

Q: For `O=C(O)CCCCC1CCSS1` (stereo not drawn) [ALA, alpha lipoic acid], which “Eyes in the study with enhanced color visual fields and visual sensitivity versus the controls” value is on record?
A: The value was 45-47%.
